# Results as given in article PMC3816974 (Bioorganic & medicinal chemistry, 2013).
# Tested on: M. tuberculosis H37Rv
# Assay: M. tuberculosis H37Rv MIC assay
# Type: cell-based, Mycobacterium tuberculosis
# Conditions: not given
row,Compound,"MIC, μM (7H9-glucose) [µM]"
1,2-[N-(Benzoyl)amino]-4-(thiazol-2-yl)thiazole [Compound 92],>25

# Same assay, conditions: M. tuberculosis H37Rv
row,Compound,antitubercular activity (in words)
1,2-[N-(Benzoyl)amino]-4-(thiazol-2-yl)thiazole [Compound 92],inactive
2,"O=C(Nc1nc(-c2ccccc2)cs1)c1ccccc1 [Compound 90, 2-[N-(Benzoyl)amino]-4-(phenyl)thiazole]",obliterates all activity
3,"O=C(Nc1nc(-c2cnccn2)cs1)c1ccccc1 [Compound 91, 2-[N-(Benzoyl)amino]-4-(pyrazin-2-yl)thiazole]",inactive

# Same assay, conditions: M. tuberculosis H37Rv; GAST medium (glycerol and alanine); […]
row,Compound,"MIC, μM (GAST) [µM]"
1,2-[N-(Benzoyl)amino]-4-(thiazol-2-yl)thiazole [Compound 92],≥25

# Same assay, conditions: Mycobacterium tuberculosis, H37RV, read-out: MIC, μM (7H9-butyrate)
row,Compound,MIC [µM]
1,Cc1ccccc1C(=O)Nc1nc(-c2ccccn2)cs1 [Compound 36],0.19 to 0.39
2,Cc1cccc(C(=O)Nc2nc(-c3ccccn3)cs2)c1 [Compound 37],0.049 to 0.098
3,COc1ccccc1C(=O)Nc1nc(-c2ccccn2)cs1 [Compound 42],3.1 to 6.3
4,COc1ccc(C(=O)Nc2nc(-c3ccccn3)cs2)cc1 [Compound 44],0.19 to 0.39
5,O=C(Nc1nc(-c2ccccn2)cs1)c1ccccc1O [Compound 45],1.6 to 3.1
6,CC(=O)c1ccc(C(=O)Nc2nc(-c3ccccn3)cs2)cc1 [Compound 48],0.19 to 0.39
7,O=C(Nc1nc(-c2ccccn2)cs1)c1ccccc1Cl [Compound 54],0.19 to 0.39
8,O=C(Nc1nc(-c2ccccn2)cs1)c1c(F)cccc1Cl [Compound 66],0.39 to 0.78
9,O=C(Nc1nc(-c2ccccn2)cs1)c1ccccn1 [Compound 68],3.1 to 6.3

# Same assay, conditions: Mycobacterium tuberculosis, H37RV, read-out: MIC, μM (7H9-glucose)
row,Compound,MIC [µM]
1,FC(F)(F)c1ccccc1Nc1nc(-c2ccccn2)cs1 [Compound 13],12 to 25
2,c1ccc(Nc2nc(-c3ccccn3)cs2)nc1 [Compound 17],0.78 to 1.6
3,"CCCC(=O)Nc1nc(-c2ccccn2)cs1 [Compound 21, N-[4-(2-pyridinyl)-1,3-thiazol-2-yl)butyramide]",12 to 25
4,O=C(Nc1nc(-c2ccccn2)cs1)C1CC1 [Compound 25],12 to 25
5,CC1CC1C(=O)Nc1nc(-c2ccccn2)cs1 (stereo not shown) [Compound 29],6.3 to 12.5
6,O=C(Nc1nc(-c2ccccn2)cs1)c1ccco1 [Compound 30],3.1 to 6.3
7,O=C(Nc1nc(-c2ccccn2)cs1)c1ccoc1 [Compound 31],3.1 to 6.3
8,O=C(Nc1nc(-c2ccccn2)cs1)c1cccs1 [Compound 32],1.6 to 3.1
9,O=C(Nc1nc(-c2ccccn2)cs1)c1ccsc1 [Compound 33],1.6 to 3.1
10,Cc1cccc(C(=O)Nc2nc(-c3ccccn3)cs2)c1 [Compound 37],0.19 to 0.39
11,O=C(Nc1nc(-c2ccccn2)cs1)c1cccc(OCc2ccccc2)c1 [Compound 40],0.39 to 0.78
12,O=C(Nc1nc(-c2ccccn2)cs1)c1ccc(OCc2ccccc2)cc1 [Compound 41],0.19 to 0.39
13,COc1cccc(C(=O)Nc2nc(-c3ccccn3)cs2)c1 [Compound 43],0.19 to 0.39
14,O=C(Nc1nc(-c2ccccn2)cs1)c1ccccc1O [Compound 45],1.6 to 3.1
15,O=C(Nc1nc(-c2ccccn2)cs1)c1ccccc1[N+](=O)[O-] [Compound 49],1.6 to 3.1
16,O=C(Nc1nc(-c2ccccn2)cs1)c1cccc([N+](=O)[O-])c1 [Compound 50],1.6 to 3.1
17,O=C(Nc1nc(-c2ccccn2)cs1)c1ccccc1Br [Compound 51],0.39 to 0.78
18,O=C(Nc1nc(-c2ccccn2)cs1)c1cccc(Br)c1 [Compound 52],0.098 to 0.19
19,O=C(Nc1nc(-c2ccccn2)cs1)c1ccccc1Cl [Compound 54],0.39 to 0.78
20,"O=C(Nc1nc(-c2ccccn2)cs1)c1cccc(Cl)c1 [Compound 55, N-(3-Chlorobenzoyl)-4-(2-pyridinyl)-1,3-thiazol-2-amine]",0.19 to 0.39
21,O=C(Nc1nc(-c2ccccn2)cs1)c1ccccc1F [Compound 57],1.6 to 3.1
22,O=C(Nc1nc(-c2ccccn2)cs1)c1cccc(F)c1 [Compound 58],0.19 to 0.39
23,O=C(Nc1nc(-c2ccccn2)cs1)c1ccc(F)cc1F [Compound 61],0.39 to 0.78
24,O=C(Nc1nc(-c2ccccn2)cs1)c1ccc(F)c(F)c1 [Compound 64],1.6 to 3.1
25,O=C(Nc1nc(-c2ccccn2)cs1)c1cccnc1Cl [Compound 67],0.39 to 0.78
26,O=C(Nc1nc(-c2ccccn2)cs1)c1ccncc1 [Compound 70],1.6 to 3.1

# Same assay, conditions: relative to 1
row,Compound,fold better MIC than the corresponding N-phenyl 1 [fold]
1,"O=C(Nc1nc(-c2ccccn2)cs1)c1ccccc1 [Compound 35, 2-[N-(Benzoyl)amino]-4-(pyridin-2-yl)thiazole]",64

# Same assay, conditions: relative to 35
Compound,fold increase in potency relative to benzoyl 35,fold loss of potency relative to the parent thiazole 35
Cc1cccc(C(=O)Nc2nc(-c3ccccn3)cs2)c1 [Compound 37],2- to 4 fold,–
"O=C(Nc1cc(-c2ccccn2)cs1)c1ccccc1 [Compound 75, 2-[N-(Benzoyl)amino]-4-(pyridin-2-yl)thiophene]",–,≥ 64 fold
"O=C(Nc1nc(-c2ccccn2)c[nH]1)c1ccccc1 [Compound 78, 2-[N-(Benzoyl)amino]-4-(pyridin-2-yl)imidazole]",–,16- to 64 fold
"O=C(Nc1nc(-c2ccccn2)co1)c1ccccc1 [Compound 82, 2-[N-(Benzoyl)amino]-4-(pyridin-2-yl)oxazole]",–,16- to 64 fold

# Same assay, conditions: relative to 69
row,Compound,fold improvement of activity over nicotinoyl 69
1,O=C(Nc1nc(-c2ccccn2)cs1)c1cccnc1Cl [Compound 67],8- to 16 fold

# Same assay, conditions: relative to oxazole 82
row,Compound,regain in potency relative to 82
1,"O=C(Nc1nnc(-c2ccccn2)o1)c1ccccc1F [Compound 83, 2-[N-(2-Fluorobenzoyl)amino]-5-(pyridin-2-yl)-1,3,4-oxadiazole]",2–4

# Tested on: Mtb
# Assay: not given
# Conditions: reported values; cited from earlier work
row,Compound,reported MIC (HTS results) [µM]
1,Fc1ccc(Nc2nc(-c3ccccn3)cs2)cc1 [Compound 12],2
2,FC(F)(F)c1ccccc1Nc1nc(-c2ccccn2)cs1 [Compound 13],< 0.3
3,Clc1ccc(Nc2nc(-c3ccccn3)cs2)nc1 [Compound 18],0.35
4,Cc1cccc(Nc2nc(-c3ccccn3)cs2)n1 [Compound 19],0.35

# Tested on: Vero cells
# Assay: Vero cell cytotoxicity MTT assay
# Type: cell-based, green monkey
# Conditions: 72 h, concentration that inhibited 50% viability
row,Compound,"EC50, μM"
1,O=C(Nc1nc(-c2ccccn2)cs1)c1ccccc1OCc1ccccc1 [Compound 39],insol.
